Data on 27 molecules can be found in ChEMBL document CHEMBL5338818, “Discovery of the First Potent, Selective, and In Vivo Efficacious Polo-like Kinase 4 Proteolysis Targeting Chimera Degrader for the Treatment of TRIM37-Amplified Breast Cancer” (J Med Chem, 2023).

Structures are written as SMILES. pIC50: −log10 of the molar value.

For assay [1], the target named is T1, Serine/threonine-protein kinase PLK4 (Homo sapiens, UniProt O00444).
T1 sequence (O00444 whole entry): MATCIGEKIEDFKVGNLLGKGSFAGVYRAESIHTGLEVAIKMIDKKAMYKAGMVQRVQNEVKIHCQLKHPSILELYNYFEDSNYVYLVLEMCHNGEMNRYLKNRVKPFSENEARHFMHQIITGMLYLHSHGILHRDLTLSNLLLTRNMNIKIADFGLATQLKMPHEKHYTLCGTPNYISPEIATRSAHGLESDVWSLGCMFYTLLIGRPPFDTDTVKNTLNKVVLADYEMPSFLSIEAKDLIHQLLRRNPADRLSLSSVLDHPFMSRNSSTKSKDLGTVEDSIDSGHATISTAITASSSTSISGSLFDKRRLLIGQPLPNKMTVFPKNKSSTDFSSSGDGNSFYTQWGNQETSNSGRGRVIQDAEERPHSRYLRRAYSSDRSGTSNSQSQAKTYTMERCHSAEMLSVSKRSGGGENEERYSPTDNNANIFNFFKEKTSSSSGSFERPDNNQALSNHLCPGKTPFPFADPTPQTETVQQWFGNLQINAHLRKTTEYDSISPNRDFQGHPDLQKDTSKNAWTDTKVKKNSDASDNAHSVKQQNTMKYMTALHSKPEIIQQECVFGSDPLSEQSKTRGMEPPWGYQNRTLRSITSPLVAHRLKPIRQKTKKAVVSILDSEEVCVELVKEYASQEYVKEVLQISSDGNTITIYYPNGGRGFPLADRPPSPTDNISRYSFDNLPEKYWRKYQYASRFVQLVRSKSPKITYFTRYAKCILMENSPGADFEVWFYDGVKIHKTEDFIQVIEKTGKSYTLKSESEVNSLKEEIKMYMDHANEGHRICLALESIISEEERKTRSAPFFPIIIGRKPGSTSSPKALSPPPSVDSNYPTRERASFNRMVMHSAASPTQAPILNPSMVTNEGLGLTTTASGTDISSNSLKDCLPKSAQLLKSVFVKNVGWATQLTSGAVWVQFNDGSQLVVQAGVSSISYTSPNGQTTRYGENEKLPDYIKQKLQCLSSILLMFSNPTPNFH
The experiment in a line: Inhibition of PLK4 (unknown origin) incubated for 1 hr in presence of kinase tracer 236 by FRET assay.

The target in assay [2] is T2, Protein cereblon/Serine/threonine-protein kinase PLK4 (Homo sapiens, UniProt O00444+Q96SW2). The experiment in a line: Protac activity at CRBN/PLK4 in human MCF7 cells at 0.1 uM incubated for 48 hrs by Western blot analysis. It is filed as cell-based. (In general: A western blot detects proteins with antibodies after separation by electrophoresis.)
For assay [3], the target named is T2, Protein cereblon/Serine/threonine-protein kinase PLK4. The assay is described as follows: Protac activity at CRBN/PLK4 in human MCF7 cells at 1 uM incubated for 48 hrs by Western blot analysis. It counts as cell-based.
Assay [4] shares this target. The experiment in a line: Protac activity at CRBN/PLK4 in human MCF7 cells at 10 uM incubated for 48 hrs by Western blot analysis. It counts as cell-based.
A further assay concerns MCF7. The assay is described as follows: Antiproliferative activity against human MCF7 cells incubated for 5 days by CCK-8 assay. Conditions: MCF7, 120 h. (In general: Formazan colour is commonly taken as a measure of viable cells.)

T2 sequence (Q96SW2 whole entry, looked up, one chain of several): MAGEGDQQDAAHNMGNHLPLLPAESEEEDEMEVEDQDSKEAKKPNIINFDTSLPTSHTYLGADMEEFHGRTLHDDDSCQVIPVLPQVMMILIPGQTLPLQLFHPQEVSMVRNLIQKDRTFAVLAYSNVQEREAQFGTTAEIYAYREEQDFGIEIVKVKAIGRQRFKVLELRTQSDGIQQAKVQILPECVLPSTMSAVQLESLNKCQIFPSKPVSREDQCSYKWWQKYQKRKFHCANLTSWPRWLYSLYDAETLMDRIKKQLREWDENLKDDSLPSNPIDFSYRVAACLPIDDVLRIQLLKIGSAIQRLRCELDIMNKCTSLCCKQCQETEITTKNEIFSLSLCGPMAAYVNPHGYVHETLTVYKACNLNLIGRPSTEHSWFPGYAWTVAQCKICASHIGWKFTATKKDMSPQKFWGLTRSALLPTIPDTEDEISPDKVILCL

Broadly, the pIC50 is the negative decadic logarithm of the IC50, by convention in mol/L. As for `Cc1cc(Nc2nc(NCc3ccc(F)cc3F)nc3c2cnn3C2CCN(C(=O)CCCCCCCCCCCCCCCOc3ccc4c(c3)C(=O)N(C3CCC(=O)NC3=O)C4=O)CC2)n[nH]1` (stereo unspecified), the pIC50 in assay [1] was 6.92. Besides, the Activity was 24.1% in assay [2], 37.8% in assay [3] and 43.5% in assay [4].

`Cc1cc(Nc2nc(NCc3ccc(F)cc3F)nc3c2cnn3C2CCN(C(=O)CC3CC4(C3)CN(c3ccc5c(c3)C(=O)N(C3CCC(=O)NC3=O)C5=O)C4)CC2)n[nH]1` (stereo unspecified): the pIC50 in assay [1] is 7.21. Further, the Activity amounted to 1.84% in assay [2], 5.49% in assay [3] and 24.3% in assay [4].

In the case of `Cc1cc(Nc2nc(NCc3ccc(F)cc3F)nc3c2cnn3C2CCN(C(=O)COCCOc3ccc4c(c3)C(=O)N(C3CCC(=O)NC3=O)C4=O)CC2)n[nH]1` (stereo unspecified), the pIC50 in assay [1] was 8.72. The figures for the Activity in assay [2], in assay [3] and in assay [4] were 2.13%, 5.34% and 28.3%, respectively.

For the molecule `Cc1cc(Nc2nc(NCc3ccc(F)cc3F)nc3c2cnn3C2CCN(C(=O)CCCCCOc3ccc4c(c3)C(=O)N(C3CCC(=O)NC3=O)C4=O)CC2)n[nH]1` (stereo unspecified), in assay [1], the pIC50 was 8.26. The Activity in assay [2] came to 31.3%; in assay [3], 46.7%; in assay [4], 57.7%.

For `Cc1cc(Nc2nc(NCc3ccc(F)cc3F)nc3c2cnn3C2CCN(C(=O)CC3CN(c4ccc5c(c4)C(=O)N(C4CCC(=O)NC4=O)C5=O)C3)CC2)n[nH]1` (stereo unspecified), the pIC50 in the assay with MCF7 is 6.29; in assay [1], 7.89. Moreover, the Activity was found to be 47.7% in assay [2] and 70.4% in assay [3].

Turning to `Cc1cc(Nc2nc(NCc3ccc(F)cc3F)nc3c2cnn3C2CCN(C(=O)COc3ccc4c(c3)C(=O)N(C3CCC(=O)NC3=O)C4=O)CC2)n[nH]1` (stereo unspecified), the pIC50 in assay [1] was 8.25. The figures for the Activity in assay [2], in assay [3] and in assay [4] were 25.3%, 28.5% and 43.9%, respectively.

For `Cc1cc(Nc2nc(NCc3ccc(F)cc3F)nc3c2cnn3C2CCN(C(=O)CC3CCN(c4ccc5c(c4)C(=O)N(C4CCC(=O)NC4=O)C5=O)C3)CC2)n[nH]1` (stereo unspecified), the pIC50 in assay [1] was 8.09. Moreover, the Activity in assay [2] is 39.2%; in assay [3], 48.9%.

For `Cc1cc(Nc2nc(NCc3ccc(F)cc3F)nc3c2cnn3C2CCN(C(=O)CCCCCCCCCCCCCCCCCOc3ccc4c(c3)C(=O)N(C3CCC(=O)NC3=O)C4=O)CC2)n[nH]1` (stereo unspecified), in assay [1], the pIC50 was 7.71. Moreover, the Activity was 20.2% in assay [2], 46.8% in assay [3] and 58.1% in assay [4].

For the molecule `Cc1cc(Nc2nc(NCc3ccc(F)cc3F)nc3c2cnn3C2CCN(CC3CCN(c4ccc5c(c4)C(=O)N(C4CCC(=O)NC4=O)C5=O)C3)CC2)n[nH]1` (stereo unspecified), the pIC50 in assay [1] is 7.87. The figures for the Activity in assay [2], in assay [3] and in assay [4] were 3.54%, 8.91% and 26.1%, respectively.

On to `Cc1cc(Nc2nc(NCc3ccc(F)cc3F)nc3c2cnn3C2CCN(C(=O)C3CCN(c4ccc5c(c4)C(=O)N(C4CCC(=O)NC4=O)C5=O)C3)CC2)n[nH]1` (stereo unspecified), for which the pIC50 in the assay with MCF7 is 6.59; in assay [1] it was 8.26. For the same molecule, the figures for the Activity in assay [2], in assay [3] and in assay [4] were 36.7%, 56.1% and 66.8%, respectively.

Turning to `Cc1cc(Nc2nc(NCc3ccc(F)cc3F)nc3c2cnn3C2CCN(C(=O)CCCCOc3ccc4c(c3)C(=O)N(C3CCC(=O)NC3=O)C4=O)CC2)n[nH]1` (stereo unspecified), the pIC50 was 6.59 in the assay on MCF7 and 8.59 in assay [1]. The Activity turned out to be 44.1% in assay [2], 56.8% in assay [3] and 63.6% in assay [4].

Consider `Cc1cc(Nc2nc(NCc3ccc(F)cc3F)nc3c2cnn3C2CCN(C(=O)CCCCCCOc3ccc4c(c3)C(=O)N(C3CCC(=O)NC3=O)C4=O)CC2)n[nH]1` (stereo unspecified), for which the pIC50 is 6.66 in the assay on MCF7 and 8.04 in assay [1]. The results for the Activity in assay [2], in assay [3] and in assay [4] were 31.7%, 55.3% and 68.9%, respectively.

On to `Cc1cc(Nc2nc(NCc3ccc(F)cc3F)nc3c2cnn3C2CCN(CC3CC4(C3)CN(c3ccc5c(c3)C(=O)N(C3CCC(=O)NC3=O)C5=O)C4)CC2)n[nH]1` (stereo unspecified), for which the pIC50 in assay [1] was 7.37. The Activity amounted to 4.12% in assay [2] and 6.07% in assay [3].

As to `Cc1cc(Nc2nc(NCc3ccc(F)cc3F)nc3c2cnn3C2CCN(CC3CCN(c4ccc5c(c4)C(=O)N(C4CCC(=O)NC4=O)C5=O)CC3)CC2)n[nH]1` (stereo unspecified), the pIC50 in assay [1] is 8.51. Also, the Activity in assay [2] worked out at 2.16%; in assay [3] it was 8.64%; in assay [4], 19.2%.

For `Cc1cc(Nc2nc(NCc3ccc(F)cc3F)nc3c2cnn3C2CCN(C(=O)Cc3ccc(N4CCN(c5ccc6c(c5)C(=O)N(C5CCC(=O)NC5=O)C6=O)CC4)cc3)CC2)n[nH]1` (stereo unspecified), the pIC50 with MCF7 is 5.16; in assay [1], 6.67. For the same molecule, the Activity in assay [2] was 40.1%; in assay [3] it was 57.6%.

Take `Cc1cc(Nc2nc(NCc3ccc(F)cc3F)nc3c2cnn3C2CCN(C(=O)C3CC4(C3)CN(c3ccc5c(c3)C(=O)N(C3CCC(=O)NC3=O)C5=O)C4)CC2)n[nH]1` (stereo unspecified): in assay [1], the pIC50 was 7.12. Further, the Activity in assay [2] was found to be 0.28%; in assay [3], 2.39%; in assay [4], 4.01%.

For `Cc1cc(Nc2nc(NCc3ccc(F)cc3F)nc3c2cnn3C2CCN(C(=O)CC3CCN(c4ccc5c(c4)C(=O)N(C4CCC(=O)NC4=O)C5=O)CC3)CC2)n[nH]1` (stereo unspecified), the pIC50 in the assay on MCF7 was 5.61; in assay [1], 7.72. In addition, the figures for the Activity in assay [2] and in assay [3] were 46.2% and 51%, respectively.

With `Cc1cc(Nc2nc(NCc3ccc(F)cc3F)nc3c2cnn3C2CCN(C(=O)CCCCCCCCCOc3ccc4c(c3)C(=O)N(C3CCC(=O)NC3=O)C4=O)CC2)n[nH]1` (stereo unspecified), in assay [1], the pIC50 is 5.97. In addition, the Activity in assay [2] is 2.81%; in assay [3], 103%; in assay [4], 23.6%.

Consider `Cc1cc(Nc2nc(NCc3ccc(F)cc3F)nc3c2cnn3C2CCN(C(=O)CCCCCCCCCCCOc3ccc4c(c3)C(=O)N(C3CCC(=O)NC3=O)C4=O)CC2)n[nH]1` (stereo unspecified), for which, in assay [1], the pIC50 was 6.27. Besides, the Activity came to 4.29% in assay [2], 13.2% in assay [3] and 21.7% in assay [4].

Turning to `Cc1cc(Nc2nc(NCc3ccc(F)cc3F)nc3c2cnn3C2CCN(C(=O)CCOCCOc3ccc4c(c3)C(=O)N(C3CCC(=O)NC3=O)C4=O)CC2)n[nH]1` (stereo unspecified), the negative-log IC50 (pIC50) in assay [1] was 8.44. In addition, the figures for the Activity in assay [2], in assay [3] and in assay [4] were 5.68%, 13.4% and 19.7%, respectively.

In the case of `Cc1cc(Nc2nc(NCc3ccc(F)cc3F)nc3c2cnn3C2CCNCC2)n[nH]1`, the pIC50 in the assay on MCF7 is 6.19.

On to `Cc1cc(Nc2nc(NCc3ccc(F)cc3F)nc3c2cnn3C2CCN(Cc3ccc(C4CCN(c5ccc6c(c5)C(=O)N(C5CCC(=O)NC5=O)C6=O)CC4)cc3)CC2)n[nH]1` (stereo unspecified), for which the pIC50 in assay [1] was 6.98. Moreover, the Activity in assay [2] was found to be 1.05%; in assay [3], 3.11%; in assay [4], 7.32%.

`Cc1cc(Nc2nc(NCc3ccc(F)cc3F)nc3c2cnn3C2CCN(C(=O)CCCCCCCCCCCCCOc3ccc4c(c3)C(=O)N(C3CCC(=O)NC3=O)C4=O)CC2)n[nH]1` (stereo unspecified): in assay [1], the negative logarithm of the IC50 (pIC50) is 6.81. The values for the Activity in assay [2], in assay [3] and in assay [4] were 11.6%, 22.8% and 35.9%, respectively.

As for `Cc1cc(Nc2nc(NCc3ccc(F)cc3F)nc3c2cnn3C2CCN(C(=O)COCCOCCOc3ccc4c(c3)C(=O)N(C3CCC(=O)NC3=O)C4=O)CC2)n[nH]1` (stereo unspecified), in assay [1], the pIC50 is 8.03. Further, the values for the Activity in assay [2], in assay [3] and in assay [4] were 24.6%, 30.3% and 38.5%, respectively.

With `Cc1cc(Nc2nc(NCc3ccc(F)cc3F)nc3c2cnn3C2CCN(C(=O)CCCCCCCOc3ccc4c(c3)C(=O)N(C3CCC(=O)NC3=O)C4=O)CC2)n[nH]1` (stereo unspecified), the pIC50 in assay [1] was 7.37. The Activity is 30.2% in assay [2], 38.9% in assay [3] and 50.3% in assay [4].

In the case of `Cc1cc(Nc2nc(NCc3ccc(F)cc3F)nc3c2cnn3C2CCN(C(=O)CCOCCOCCCOc3ccc4c(c3)C(=O)N(C3CCC(=O)NC3=O)C4=O)CC2)n[nH]1` (stereo unspecified), the negative-log IC50 (pIC50) in assay [1] was 7.42. Besides, the Activity in assay [2] came to 29.1%; in assay [3] it was 46.4%; in assay [4], 52.2%.

For `Cc1cc(Nc2nc(NCc3ccc(F)cc3F)nc3c2cnn3C2CCN(CC3CN(c4ccc5c(c4)C(=O)N(C4CCC(=O)NC4=O)C5=O)C3)CC2)n[nH]1` (stereo unspecified), in assay [1], the negative logarithm of the IC50 (pIC50) was 8.00. For the same molecule, the Activity in assay [2] amounted to 2.33%; in assay [3], 31.1%; in assay [4] it was 42.2%.
